Patent publication US20250235460A1, “COMBINATION THERAPY USING GLUCOSE-DEPENDENT INSULINOTROPIC POLYPEPTIDE RECEPTOR ANTAGONIST COMPOUNDS AND GLP-1 RECEPTOR AGONIST COMPOUNDS” (Pfizer Inc., priority 2024, published 2025)

Tests used:
[1] = molecular target: human GLP-1R (Homo sapiens, UniProt P43220, L260F); experiment: CHO GLP-1R Clone C6 cAMP HTRF agonist assay (Assay 2, low receptor density); type: cell-based; details: for EC50: CHO GLP-1R clone C6, cAMP HTRF, geometric mean; for Emax: CHO GLP-1R clone C6, arithmetic mean, relative to saturating GLP-1 (1 μM)
human GLP-1R (Homo sapiens, UniProt P43220, L260F), sequence (P43220 24-463 L260F): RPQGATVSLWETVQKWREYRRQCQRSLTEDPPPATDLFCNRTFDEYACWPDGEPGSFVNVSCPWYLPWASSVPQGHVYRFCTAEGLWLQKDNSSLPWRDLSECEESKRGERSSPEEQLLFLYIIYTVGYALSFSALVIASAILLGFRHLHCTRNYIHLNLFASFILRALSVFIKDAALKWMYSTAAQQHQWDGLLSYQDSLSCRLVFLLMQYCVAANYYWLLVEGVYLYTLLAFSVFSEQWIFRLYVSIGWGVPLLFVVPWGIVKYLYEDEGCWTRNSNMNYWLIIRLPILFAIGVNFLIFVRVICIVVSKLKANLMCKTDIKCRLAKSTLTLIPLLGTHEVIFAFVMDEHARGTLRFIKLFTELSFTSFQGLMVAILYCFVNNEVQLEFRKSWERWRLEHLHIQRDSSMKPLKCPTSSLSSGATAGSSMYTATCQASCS
Source text: In Table 5 and Table 6, assay data are presented to two (2) significant figures as the geometric mean (EC50s) and arithmetic mean (Emax) based on the number of replicates listed (Number). A blank cell means there was no data for that Example or the Emax was not calculated.

[2] = molecular target: human GLP-1R (Homo sapiens, UniProt P43220, G168S); experiment: CHO GLP-1R Clone H6 cAMP HTRF agonist assay (Assay 1, high receptor density); type: cell-based; details: for EC50: CHO GLP-1R clone H6, cAMP HTRF, geometric mean; for Emax: CHO GLP-1R clone H6, arithmetic mean, relative to saturating GLP-1 (1 μM), read-out: Assay 1 Emax (%)
human GLP-1R (Homo sapiens, UniProt P43220, G168S), sequence (P43220 24-463 G168S): as the sequence (P43220 24-463 L260F) above, with G145S, F237L counted along it
Summary of the method: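 Averaging differs by parameter: a geometric mean for EC50 and an arithmetic mean for Emax, each over the stated replicate number.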

| Compound | EC50 [1] [nM] | Emax [1] [%] | EC50 [2] [nM] | Emax [2] [%] |
| --- | --- | --- | --- | --- |
| CCOC(C)Cn1c(CN2CCC(c3cccc(OCc4ccc(Cl)cc4F)n3)CC2)nc2ccc(C(=O)O)cc21 (stereo not shown) [Compound 293B, 2-[(4-{6-[(4-chloro-2-fluorobenzyl)oxy]pyridin-2-yl}piperidin-1-yl)methyl]-1-(2-ethoxypropyl)-1H-benzimidazole-6-carboxylic acid] | 590 | 85 | 56 | 81 |
| COCCn1cnnc1Cn1c(CN2CCC(c3cccc(OCc4ccc(Cl)cc4F)n3)CC2)nc2ccc(C(=O)O)cc21 [Compound 294B, 2-[(4-{6-[(4-chloro-2-fluorobenzyl)oxy]pyridin-2-yl}piperidin-1-yl)methyl]-1-{[4-(2-methoxyethyl)-4H-1,2,4-triazol-3-yl]methyl}-1H-benzimidazole-6-carboxylic acid] | 1500 | 81 | 72 | 76 |
| O=C(O)c1ccc2nc(CN3CCC(c4cccc(OCc5ccc(Cl)cc5F)n4)CC3)n(CCN3CCOC3=O)c2c1 [Compound 295B, 2-[(4-{6-[(4-chloro-2-fluorobenzyl)oxy]pyridin-2-yl}piperidin-1-yl)methyl]-1-[2-(2-oxo-1,3-oxazolidin-3-yl)ethyl]-1H-benzimidazole-6-carboxylic acid] | 3100 | 110 | 87 |  |
| Cn1nccc1Cn1c(CN2CCC(c3cccc(OCc4ccc(Cl)cc4F)n3)CC2)nc2ccc(C(=O)O)cc21 [Compound 296B, 2-[(4-{6-[(4-chloro-2-fluorobenzyl)oxy]pyridin-2-yl}piperidin-1-yl)methyl]-1-[(1-methyl-1H-pyrazol-5-yl)methyl]-1H-benzimidazole-6-carboxylic acid] | 1400 | 94 | 96 | 86 |
| COC(C)(C)Cn1c(CN2CCC(c3cccc(OCc4ccc(Cl)cc4F)n3)CC2)nc2ccc(C(=O)O)cc21 [Compound 297B, 2-[(4-{6-[(4-chloro-2-fluorobenzyl)oxy]pyridin-2-yl}piperidin-1-yl)methyl]-1-(2-methoxy-2-methylpropyl)-1H-benzimidazole-6-carboxylic acid] | 3500 | 95 | 110 | 70 |
| O=C(O)c1ccc2nc(CN3CCC(c4cccc(OCc5ccc(Cl)cc5F)n4)CC3)n(Cc3c[nH]nn3)c2c1 [Compound 298B, 2-[(4-{6-[(4-chloro-2-fluorobenzyl)oxy]pyridin-2-yl}piperidin-1-yl)methyl]-1-(1H-1,2,3-triazol-4-ylmethyl)-1H-benzimidazole-6-carboxylic acid] | 2700 |  | 110 | 74 |
| O=C(O)c1ccc2nc(CN3CCC(c4cccc(OCc5ccc(Cl)cc5F)n4)CC3)n(Cc3cc[nH]n3)c2c1 [Compound 299B, 2-[(4-{6-[(4-chloro-2-fluorobenzyl)oxy]pyridin-2-yl}piperidin-1-yl)methyl]-1-(1H-pyrazol-3-ylmethyl)-1H-benzimidazole-6-carboxylic acid] | 2200 |  | 110 | 79 |
| O=C(O)c1ccc2nc(CN3CCC(c4cccc(OCc5ccc(Cl)cc5F)n4)CC3)n(Cc3nnc[nH]3)c2c1 [Compound 300B, 2-[(4-{6-[(4-chloro-2-fluorobenzyl)oxy]pyridin-2-yl}piperidin-1-yl)methyl]-1-(4H-1,2,4-triazol-3-ylmethyl)-1H-benzimidazole-6-carboxylic acid] | 1300 | 96 | 120 | 93 |
| O=C(O)c1ccc2nc(CN3CCC(c4cccc(OCc5ccc(Cl)cc5F)n4)CC3)n(C3CCOC3)c2c1 (stereo not shown) [Compound 301B, 2-[(4-{6-[(4-chloro-2-fluorobenzyl)oxy]pyridin-2-yl}piperidin-1-yl)methyl]-1-(tetrahydrofuran-3-yl)-1H-benzimidazole-6-carboxylic acid] | 1500 | 92 | 120 | 80 |
| Cc1ccn(CCn2c(CN3CCC(c4cccc(OCc5ccc(Cl)cc5F)n4)CC3)nc3ccc(C(=O)O)cc32)n1 [Compound 306B, 2-[(4-{6-[(4-chloro-2-fluorobenzyl)oxy]pyridin-2-yl}piperidin-1-yl)methyl]-1-[2-(3-methyl-1H-pyrazol-1-yl)ethyl]-1H-benzimidazole-6-carboxylic acid] | 3600 | 93 | 190 | 80 |
| O=C(O)c1ccc2nc(CN3CCC(c4cccc(OCc5ccc(Cl)cc5F)n4)CC3)n(CCc3c[nH]cn3)c2c1 [Compound 316B, 2-[(4-{6-[(4-chloro-2-fluorobenzyl)oxy]pyridin-2-yl}piperidin-1-yl)methyl]-1-[2-(1H-imidazol-4-yl)ethyl]-1H-benzimidazole-6-carboxylic acid] | 5600 | 76 | 450 | 71 |
| COC1CCN(CCn2c(CN3CCC(c4cccc(OCc5ccc(Cl)cc5F)n4)CC3)nc3ccc(C(=O)O)cc32)CC1 [Compound 331B, 2-[(4-{6-[(4-chloro-2-fluorobenzyl)oxy]pyridin-2-yl}piperidin-1-yl)methyl]-1-[2-(4-methoxypiperidin-1-yl)ethyl]-1H-benzimidazole-6-carboxylic acid] | 2000 | 82 | 63 | 78 |
| Cc1cc(C)n(CCn2c(CN3CCC(c4cccc(OCc5ccc(Cl)cc5F)n4)CC3)nc3ccc(C(=O)O)cc32)n1 [Compound 332B, 2-[(4-{6-[(4-chloro-2-fluorobenzyl)oxy]pyridin-2-yl}piperidin-1-yl)methyl]-1-[2-(3,5-dimethyl-1H-pyrazol-1-yl)ethyl]-1H-benzimidazole-6-carboxylic acid] | 21 | 84 | 5.3 | 76 |
| Cc1cc(Cn2c(CN3CCC(c4cccc(OCc5ccc(Cl)cc5F)n4)CC3)nc3ccc(C(=O)O)cc32)[nH]n1 [Compound 333B, 2-[(4-{6-[(4-chloro-2-fluorobenzyl)oxy]pyridin-2-yl}piperidin-1-yl)methyl]-1-[(3-methyl-1H-pyrazol-5-yl)methyl]-1H-benzimidazole-6-carboxylic acid] | 10 | 89 | 0.7 | 86 |
| Cc1n[nH]c(Cn2c(CN3CCC(c4cccc(OCc5ccc(Cl)cc5F)n4)CC3)nc3ccc(C(=O)O)cc32)n1 [Compound 334B, 2-[(4-{6-[(4-chloro-2-fluorobenzyl)oxy]pyridin-2-yl}piperidin-1-yl)methyl]-1-[(3-methyl-1H-1,2,4-triazol-5-yl)methyl]-1H-benzimidazole-6-carboxylic acid] | 570 | 93 | 30 | 73 |
| CC(c1cnn(C)n1)n1c(CN2CCC(c3cccc(OCc4ccc(Cl)cc4F)n3)CC2)nc2ccc(C(=O)O)cc21 (stereo not shown) [Compound 335B, 2-[(4-{6-[(4-chloro-2-fluorobenzyl)oxy]pyridin-2-yl}piperidin-1-yl)methyl]-1-[1-(2-methyl-2H-1,2,3-triazol-4-yl)ethyl]-1H-benzimidazole-6-carboxylic acid] | 41 | 77 | 5 | 82 |
